≈ marks a conversion by molar mass, not a printed value.
Experiment: physchem
Settings: 60 °C, thermodynamic from solid
Experimental: • (6) Solubility of Nitrogen-Containing Additive
After 100 mg of the nitrogen-containing additive and 1 L of a solvent were mixed, the resulting mixture was stirred at a rotational speed of 200 rpm at 60° C. for 1 hour using a mixing machine to dissolve the nitrogen-containing additive.

## c1cnc2c(c1)ccc1cccnc12 [1,10-phenanthroline, reference compound]
Aqueous buffer
  solubility at 1 h: ≥ 100 µg/mL
water
  solubility at 1 h: ≥ 100 µg/mL

## Nc1cc2cccnc2c2ncccc12 [5-amino-1,10-phenanthroline, reference compound]
Aqueous buffer
  solubility at 1 h: ≥ 100 µg/mL
water
  solubility at 1 h: ≥ 100 µg/mL

## c1cc(-c2ccc3ccc4cccnc4c3n2)cc(-c2ccc3ccc4cccnc4c3n2)c1 [ADT-1]
Aqueous buffer
  solubility at 1 h: 5 µg/mL (≈ 11.5 µM)
water
  solubility at 1 h: < 0.1 µg/mL

## c1ccc(-c2ccc3ccc4ccc(-c5cccc(-c6ccc7ccc8ccc(-c9ccccc9)nc8c7n6)c5)nc4c3n2)cc1 [ADT-2]
Aqueous buffer
  solubility at 1 h: 3.4 µg/mL (≈ 5.8 µM)
water
  solubility at 1 h: < 0.1 µg/mL

## c1cnc2c(c1)ccc1ccc(-c3ccc(-c4ccc5ccc6cccnc6c5n4)cc3)nc12 [ADT-3]
Aqueous buffer
  solubility at 1 h: 4.2 µg/mL (≈ 9.67 µM)
water
  solubility at 1 h: < 0.1 µg/mL

## c1ccc2c(-c3ccc4ccc5ccc(-c6ccc(-c7ccc8ccc9ccc(-c%10cccc%11ccccc%10%11)nc9c8n7)cc6)nc5c4n3)cccc2c1 [ADT-4]
Aqueous buffer
  solubility at 1 h: 1.9 µg/mL (≈ 2.77 µM)
water
  solubility at 1 h: < 0.1 µg/mL

## c1cnc2c(c1)ccc1ccc(-c3ccc4ccc(-c5ccc6ccc7cccnc7c6n5)cc4c3)nc12 [ADT-5]
Aqueous buffer
  solubility at 1 h: 4 µg/mL (≈ 8.25 µM)
water
  solubility at 1 h: < 0.1 µg/mL

## c1ccc(-c2ccc3ccc4ccc(-c5ccc6ccc(-c7ccc8ccc9ccc(-c%10ccccc%10)nc9c8n7)cc6c5)nc4c3n2)cc1 [ADT-6]
Aqueous buffer
  solubility at 1 h: 2.6 µg/mL (≈ 4.08 µM)
water
  solubility at 1 h: < 0.1 µg/mL

## c1cnc2c(c1)ccc1ccc(-c3cccc4c(-c5ccc6ccc7cccnc7c6n5)cccc34)nc12 [ADT-7]
Aqueous buffer
  solubility at 1 h: 4.5 µg/mL (≈ 9.29 µM)
water
  solubility at 1 h: < 0.1 µg/mL

## c1ccc(-c2ccc(-c3ccc4ccc5cccnc5c4n3)cc2)c(-c2ccc(-c3ccc4ccc5cccnc5c4n3)cc2)c1 [ADT-8]
Aqueous buffer
  solubility at 1 h: 3.3 µg/mL (≈ 5.62 µM)
water
  solubility at 1 h: < 0.1 µg/mL

## c1cc(-c2ccc(-c3ccc4ccc5cccnc5c4n3)cc2)cc(-c2ccc(-c3ccc4ccc5cccnc5c4n3)cc2)c1 [ADT-9]
Aqueous buffer
  solubility at 1 h: 3 µg/mL (≈ 5.11 µM)
water
  solubility at 1 h: < 0.1 µg/mL

## c1cc(-c2cccc(-c3ccc4ccc5cccnc5c4n3)c2)cc(-c2cccc(-c3ccc4ccc5cccnc5c4n3)c2)c1 [ADT-10]
Aqueous buffer
  solubility at 1 h: 3.6 µg/mL (≈ 6.14 µM)
water
  solubility at 1 h: < 0.1 µg/mL

## CC(C)(C)c1ccc(-c2ccc3ccc4ccc(-c5cccc(-c6ccc7ccc8ccc(-c9ccc(C(C)(C)C)cc9)nc8c7n6)c5)nc4c3n2)cc1 [ADT-11]
Aqueous buffer
  solubility at 1 h: 2.9 µg/mL (≈ 4.15 µM)
water
  solubility at 1 h: < 0.1 µg/mL

## Cc1cc(C)cc(-c2ccc3ccc4ccc(-c5cccc(-c6ccc7ccc8ccc(-c9cc(C)cc(C)c9)nc8c7n6)c5)nc4c3n2)c1 [ADT-12]
Aqueous buffer
  solubility at 1 h: 3.1 µg/mL (≈ 4.82 µM)
water
  solubility at 1 h: < 0.1 µg/mL

## Cc1ccc(-c2ccc3ccc4ccc(-c5cccc(-c6ccc7ccc8ccc(-c9ccc(C)cc9)nc8c7n6)c5)nc4c3n2)cc1 [ADT-13]
Aqueous buffer
  solubility at 1 h: 3.2 µg/mL (≈ 5.21 µM)
water
  solubility at 1 h: < 0.1 µg/mL

## c1cc(-c2ccc3ccc4ccc(-c5cccc6ccccc56)nc4c3n2)cc(-c2ccc3ccc4ccc(-c5cccc6ccccc56)nc4c3n2)c1 [ADT-14]
Aqueous buffer
  solubility at 1 h: 2.8 µg/mL (≈ 4.08 µM)
water
  solubility at 1 h: < 0.1 µg/mL

## c1ccc(-c2ccc3ccc4ccc(-c5ccc(-c6ccc7ccc8ccc(-c9ccccc9)nc8c7n6)cc5)nc4c3n2)cc1 [ADT-15]
Aqueous buffer
  solubility at 1 h: 2.5 µg/mL (≈ 4.26 µM)
water
  solubility at 1 h: < 0.1 µg/mL

## CC(C)(C)c1ccc(-c2ccc3ccc4ccc(-c5ccc(-c6ccc7ccc8ccc(-c9ccc(C(C)(C)C)cc9)nc8c7n6)cc5)nc4c3n2)cc1 [ADT-16]
Aqueous buffer
  solubility at 1 h: 2.8 µg/mL (≈ 4.01 µM)
water
  solubility at 1 h: < 0.1 µg/mL

## c1cc(-c2cccc(-c3ccc4ccc5cccnc5c4n3)c2)cc(-c2ccc3ccc4cccnc4c3n2)c1 [ADT-17]
Aqueous buffer
  solubility at 1 h: 4.6 µg/mL (≈ 9.01 µM)
water
  solubility at 1 h: < 0.1 µg/mL

## c1cnc2c(c1)ccc1ccc(-c3cc(-c4ccc5ccc6cccnc6c5n4)cc(-c4ccc5ccc6cccnc6c5n4)c3)nc12 [ADT-18]
Aqueous buffer
  solubility at 1 h: 1.3 µg/mL (≈ 2.12 µM)
water
  solubility at 1 h: < 0.1 µg/mL

## c1cnc2c(c1)ccc1ccc(-c3ccc(C(c4ccc(-c5ccc6ccc7cccnc7c6n5)cc4)(c4ccc(-c5ccc6ccc7cccnc7c6n5)cc4)c4ccc(-c5ccc6ccc7cccnc7c6n5)cc4)cc3)nc12 [ADT-19]
Aqueous buffer
  solubility at 1 h: < 0.1 µg/mL
water
  solubility at 1 h: < 0.1 µg/mL

## Nc1ccc(-c2ccc3ccc4ccc(-c5cccc(-c6ccc7ccc8ccc(-c9ccc(N)cc9)nc8c7n6)c5)nc4c3n2)cc1 [ADT-20]
Aqueous buffer
  solubility at 1 h: 7.5 µg/mL (≈ 12.2 µM)
water
  solubility at 1 h: < 0.1 µg/mL

## O=S(=O)(O)c1ccc(-c2ccc3ccc4ccc(-c5cccc(-c6ccc7ccc8ccc(-c9ccc(S(=O)(=O)O)cc9)nc8c7n6)c5)nc4c3n2)cc1 [ADT-21]
Aqueous buffer
  solubility at 1 h: 6.3 µg/mL (≈ 8.44 µM)
water
  solubility at 1 h: < 0.1 µg/mL

From patent US9748593B2, “Polymer electrolyte composition, and polymer electrolyte membrane, membrane electrode complex and solid polymer-type fuel cell each produced using same” (TORAY INDUSTRIES, INC., priority 2012, dated 2017)
